Reference: paper PMC8298633, “Cannabis constituents interact at the drug efflux pump BCRP to markedly increase plasma cannabidiolic acid concentrations” (Scientific Reports, 2021)
Entries after “also recorded” stand apart in the source; their conditions may differ.

Assays:
[1] = target: T1, BCRP (Homo sapiens, UniProt Q9UNQ0); experiment: Bidirectional transwell substrate assay, MDCK cells expressing BCRP (with or without elacridar); settings: for P (A > B) / P (B > A) / efflux ratio at 240 min, 10 µM: BCRP MDCK cells, 10 µM cannabinoid; for P (A > B): apical to basolateral; for P (B > A): basolateral to apical; for BCRP substrate status: human BCRP MDCK cells vs wildtype, with elacridar control; for efflux ratio at 240 min, 10 µM: human, r (transport efflux ratio), substrate threshold 1.5
T1 sequence (Q9UNQ0 1-655): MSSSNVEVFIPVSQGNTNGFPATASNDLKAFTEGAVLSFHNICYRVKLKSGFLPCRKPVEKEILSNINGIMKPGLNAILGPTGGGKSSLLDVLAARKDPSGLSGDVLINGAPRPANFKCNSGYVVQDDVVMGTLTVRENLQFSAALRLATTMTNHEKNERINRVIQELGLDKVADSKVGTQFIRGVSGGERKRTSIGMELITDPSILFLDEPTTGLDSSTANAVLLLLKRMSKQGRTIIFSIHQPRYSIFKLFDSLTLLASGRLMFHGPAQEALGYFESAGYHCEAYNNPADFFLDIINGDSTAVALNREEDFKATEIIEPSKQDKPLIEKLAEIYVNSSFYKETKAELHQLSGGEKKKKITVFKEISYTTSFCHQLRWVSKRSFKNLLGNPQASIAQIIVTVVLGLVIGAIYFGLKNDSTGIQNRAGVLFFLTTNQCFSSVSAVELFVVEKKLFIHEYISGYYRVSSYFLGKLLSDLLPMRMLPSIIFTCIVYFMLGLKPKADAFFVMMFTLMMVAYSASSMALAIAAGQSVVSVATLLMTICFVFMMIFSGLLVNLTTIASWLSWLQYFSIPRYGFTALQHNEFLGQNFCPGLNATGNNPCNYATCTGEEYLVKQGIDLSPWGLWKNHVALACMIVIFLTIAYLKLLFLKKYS
Description: (§1) We first aimed to determine whether the cannabinoids found in the full-spectrum cannabis extract were substrates of P-glycoprotein and BCRP by using MDCK cells expressing human P-glycoprotein or BCRP in vitro. Transwell assays were conducted to assess bidirectional transport of the cannabinoids detected in plasma following administration of the full-spectrum cannabis extract (CBD, CBDA, CBDVA, CBGA, Δ^9-THC and Δ^9-THCA), including the respective neutral compounds (CBDV and CBG) across wildtype, BCRP and P-glycoprotein MDCK cell monolayers. […] BCRP and P-glycoprotein preferentially transport substrates in the B > A direction.
(§2) Media in the donor chamber was then replaced with that containing 10 µM of an individual cannabinoid in the presence of either vehicle or inhibitor and returned to 37 °C. Aliquots (25 or 50 µL) were removed from the accepter chamber at 60, 120, 180 and 240 min.
(§3) Cannabinoids were analyzed as described above.

[2] = Pharmacokinetic study: plasma cannabinoids after single oral gavage of full-spectrum cannabis extract or individual cannabinoid; settings: for Detection in plasma following oral administration of the full-spectrum extract / tmax / AUC / t1/2 / Cmax / Total plasma exposure in full-spectrum extract relative to individual compound, fold lower: mouse plasma; for Detection in plasma following oral administration of the full-spectrum extract: single oral dose of extract; for Total plasma exposure in full-spectrum extract relative to individual compound, fold lower: equivalent doses
Description: Drugs were administered by oral gavage in a volume of 5 mL/kg. Wildtype male and female mice (postnatal day 21–28, P21-28) received a single oral gavage of either the full-spectrum cannabis extract or an individual cannabinoid. Cannabinoid doses within the full-spectrum extract or as an individual cannabinoid were as follows in mg/kg: CBDA and Δ^9-THCA, 50; CBD, 25; Δ^9-THC, 15; CBC, 9; CBDVA and CBGA, 7; CBN, 2.5; CBG, 1.5; CBDV and Δ^9-THCV, < 1 (Fig. 1a). At selected time points (15–240 min), mice were anesthetized with isoflurane and whole blood was collected by cardiac puncture. Plasma was isolated by centrifugation (9000 g for 10 min, 4 °C) and stored at − 80 °C until assayed.
Concentrations of cannabinoids in plasma samples were quantified as described previously, [24], [58]. […] The organic layer was isolated by centrifugation (4000 g for 10 min) and evaporated to dryness with N2. Samples were reconstituted in acetonitrile and 0.1% formic acid in water (1:3.3, v/v) for supported-liquid extraction (SLE) with methyl tert-butyl ether (MTBE) using Biotage Isolute SLE+ columns (Uppsala, SWE). […] Quantification of cannabinoids was achieved by comparing samples to standards prepared with known amounts of drug.
Plasma concentrations at each time point were averaged and pharmacokinetic parameters were calculated by noncompartmental analysis. Elimination rate constants were determined by linear regression of the terminal component of the concentration–time curve using GraphPad Prism 8.2 (La Jolla, USA). The log-linear trapezoidal method was used to calculated total drug exposure (area under concentration–time curve) using equations described previously.

[3] = Bidirectional transwell transport assay, wildtype MDCK cell monolayers; settings: dog, MDCK
Description: as §1, §2, §3

[4] = system: wildtype MDCK cells; experiment: as above; settings: wildtype MDCK cells, 10 µM cannabinoid, apical to basolateral
Description: as §1, §2, §3

[5] = target: P-glycoprotein (Homo sapiens, UniProt P08183); experiment: Bidirectional transwell substrate assay, MDCK cells expressing P-glycoprotein; settings: for P (A > B): apical to basolateral; for P (B > A): basolateral to apical; for P-glycoprotein substrate status: human P-glycoprotein MDCK cells vs wildtype; for efflux ratio at 240 min, 10 µM: human, MDCK-MDR1, r (transport efflux ratio)
Description: as §1, §2, §3

[6] = target: T1, BCRP; experiment: Inhibition of BCRP-mediated transport of prazosin (transwell, BCRP MDCK cells); settings: 10 µM, compared to vehicle
[7] = P-glycoprotein MDCK cells, 10 µM cannabinoid
[8] = P-glycoprotein MDCK cells, 10 µM cannabinoid, substrate threshold 2.5
[9] = oral, administered as individual cannabinoid, doses mg/kg: CBD 25, CBDA 50, CBDVA 7, THC 15, THCA 50
[10] = oral, administered in full-spectrum extract, doses mg/kg: CBD 25, CBDA 50, CBDVA 7, CBGA 7, THC 15, THCA 50

Chain of P-glycoprotein (P08183 whole entry): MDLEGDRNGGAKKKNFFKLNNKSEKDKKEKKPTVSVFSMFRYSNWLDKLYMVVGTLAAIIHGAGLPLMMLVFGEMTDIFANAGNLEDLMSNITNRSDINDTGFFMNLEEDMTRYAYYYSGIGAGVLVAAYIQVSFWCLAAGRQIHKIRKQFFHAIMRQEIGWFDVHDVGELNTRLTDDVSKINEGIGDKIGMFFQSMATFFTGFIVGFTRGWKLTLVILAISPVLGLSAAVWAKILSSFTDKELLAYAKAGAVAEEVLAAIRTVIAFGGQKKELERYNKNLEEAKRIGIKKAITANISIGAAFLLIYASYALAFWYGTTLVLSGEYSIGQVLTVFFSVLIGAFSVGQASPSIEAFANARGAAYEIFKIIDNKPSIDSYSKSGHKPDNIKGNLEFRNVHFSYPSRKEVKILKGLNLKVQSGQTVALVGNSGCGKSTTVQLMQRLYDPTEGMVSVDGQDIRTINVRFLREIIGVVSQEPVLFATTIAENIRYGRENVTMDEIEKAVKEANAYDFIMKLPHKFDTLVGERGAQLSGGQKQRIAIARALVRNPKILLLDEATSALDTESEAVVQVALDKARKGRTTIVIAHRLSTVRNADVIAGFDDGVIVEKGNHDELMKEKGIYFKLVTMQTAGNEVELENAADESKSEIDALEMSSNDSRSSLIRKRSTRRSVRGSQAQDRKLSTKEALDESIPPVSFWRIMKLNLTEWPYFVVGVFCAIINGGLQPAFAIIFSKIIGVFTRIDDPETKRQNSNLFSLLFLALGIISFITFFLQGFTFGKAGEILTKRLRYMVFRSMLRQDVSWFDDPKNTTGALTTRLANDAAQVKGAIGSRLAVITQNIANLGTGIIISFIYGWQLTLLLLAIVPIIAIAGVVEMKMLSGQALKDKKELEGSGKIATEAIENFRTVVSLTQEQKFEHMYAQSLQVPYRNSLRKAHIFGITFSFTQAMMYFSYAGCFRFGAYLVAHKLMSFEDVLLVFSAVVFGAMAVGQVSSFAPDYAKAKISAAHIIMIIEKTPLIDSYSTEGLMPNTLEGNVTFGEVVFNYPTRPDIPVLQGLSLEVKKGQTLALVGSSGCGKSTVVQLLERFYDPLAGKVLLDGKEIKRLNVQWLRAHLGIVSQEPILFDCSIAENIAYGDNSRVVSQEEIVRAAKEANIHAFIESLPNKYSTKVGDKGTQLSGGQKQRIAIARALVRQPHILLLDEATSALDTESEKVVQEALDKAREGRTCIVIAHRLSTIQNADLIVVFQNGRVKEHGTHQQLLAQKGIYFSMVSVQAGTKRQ

Structure (SMILES) | P (B > A) [1] | BCRP substrate status [1] | Detection in plasma following oral administration of the full-spectrum extract [2] | Papp B→A at 240 min, 10 µM [3] | P (A > B) [5, 7] | P (B > A) [5, 7] | P-glycoprotein substrate status [5] | other results
C=C(C)[C@@H]1CCC(C)=C[C@H]1c1c(O)cc(CCC)cc1O [CBDV, cannabidivarin] | 90 ± 9 × 10^−5 cm/s | not considered a substrate of BCRP; also recorded: not substrates of either BCRP or P-glycoprotein | not detected | 440 ± 50 ×10⁻⁶ cm/s | 30 ± 8 × 10^−5 cm/s | 34 ± 3 × 10^−5 cm/s | not substrates of either BCRP or P-glycoprotein | P (A > B) [1]: 63 ± 14 × 10^−5 cm/s; efflux ratio at 240 min, 10 µM [1]: 1.4 ± 0.2; efflux ratio at 240 min, 10 µM [3]: 1 ± 0.2; P (A > B) [4]: 43 ± 5 × 10^−5 cm/s; efflux ratio at 240 min, 10 µM [5, 8]: 1.1 ± 0.3
CCCCCc1cc(O)c2c(c1)OC(C)(C)c1ccc(C)cc1-2 [CBN, cannabinol] | – | – | not detected | – | – | – | – | –
CCCCCc1cc2c(c(O)c1C(=O)O)C1C=C(C)CCC1C(C)(C)O2 (centres unmarked) [Δ^9-THCA, Δ^9-tetrahydrocannabinolic acid] | 6 ± 2 × 10^−5 cm/s | not substrates of either BCRP or P-glycoprotein | detected | – | 17 ± 5 × 10^−5 cm/s | 8 ± 3 × 10^−5 cm/s | not substrates of either BCRP or P-glycoprotein | tmax ([2]; oral, administered as individual cannabinoid, doses mg/kg: CBD 25, CBDA 50, CBDVA 7, CBGA 7, THC 15, THCA 50): 0.5 h; AUC [2, 9]: 173 µg·min/mL; t1/2 [2, 9]: 0.617 h; Cmax ([2]; oral, administered as individual cannabinoid, doses mg/kg: CBD 25, THC 15, THCA 50): 2094 ± 74 ng/mL; AUC [2, 10]: 44 µg·min/mL; t1/2 [2, 10]: 0.767 h; tmax [2, 10]: 0.75 h; Cmax ([2]; oral, administered in full-spectrum extract, doses mg/kg: CBD 25, THC 15, THCA 50): 465 ± 64 ng/mL; Total plasma exposure in full-spectrum extract relative to individual compound, fold lower ([2]; oral): 2–4 ×; r (transport efflux ratio) [5, 8]: 0.5 ± 0.4
CCCCCc1cc(O)c2c(c1)OC(C)(CCC=C(C)C)C=C2 (centres unmarked) [CBC] | – | – | not detected | – | – | – | – | –
CCCc1cc(O)c2c(c1)OC(C)(C)[C@@H]1CCC(C)=C[C@@H]21 [Δ^9-THCV, Δ^9-tetrahydrocannabivarin] | – | – | not detected | – | – | – | – | –
CCCCCc1cc(O)c(C/C=C(\C)CCC=C(C)C)c(O)c1 [CBG, cannabigerol] | 53 ± 10 × 10^−5 cm/s | weak substrates of BCRP | not detected | 100 ± 30 ×10⁻⁶ cm/s | 19 ± 5 × 10^−5 cm/s | 14 ± 2 × 10^−5 cm/s | not P-glycoprotein substrates | P (A > B) [1]: 47 ± 9 × 10^−5 cm/s; efflux ratio at 240 min, 10 µM [1]: 1.1 ± 0.3; efflux ratio at 240 min, 10 µM [3]: 0.8 ± 0.5; P (A > B) [4]: 12 ± 5 × 10^−5 cm/s; Effect on BCRP-mediated transport of prazosin [6]: not prazosin transport
CCCCCc1cc(O)c(C/C=C(\C)CCC=C(C)C)c(O)c1C(=O)O [CBGA, cannabigerolic acid] | 5 ± 1 × 10^−5 cm/s | not substrates of either BCRP or P-glycoprotein | detected | 10 ± 10 ×10⁻⁶ cm/s | 5 ± 2 × 10^−5 cm/s | 3 ± 1 × 10^−5 cm/s | not substrates of either BCRP or P-glycoprotein | AUC ([2]; both, mouse, plasma, po, 7 mg/kg, AUC (does not include terminal phase), administered as individual cannabinoid, CBGA 7 mg/kg): 8670 µg·min/mL; AUC ([2]; both, mouse, plasma, po, AUC, oral, administered in full-spectrum extract, doses mg/kg: CBD 25, CBDA 50, CBDVA 7, CBGA 7, THC 15, THCA 50): 5170 µg·min/mL; Cmax ([2]; both, mouse, plasma, po, Cmax, oral, administered as individual cannabinoid, doses mg/kg: CBDA 50, CBDVA 7, CBGA 7): 48000 ± 2000 ng/mL; Cmax ([2]; both, mouse, plasma, po, Cmax, oral, administered in full-spectrum extract, doses mg/kg: CBDA 50, CBDVA 7, CBGA 7): 12000 ± 1000 ng/mL; half-life ([2]; both, mouse, plasma, po, t1/2, mouse plasma, oral, administered in full-spectrum extract, doses mg/kg: CBD 25, CBDA 50, CBDVA 7, CBGA 7, THC 15, THCA 50): 4.97 h; tmax ([2]; both, mouse, plasma, po, tmax, oral, administered as individual cannabinoid, doses mg/kg: CBD 25, CBDA 50, CBDVA 7, CBGA 7, THC 15, THCA 50): 2 h; tmax ([2]; both, mouse, plasma, po, tmax, oral, administered in full-spectrum extract, doses mg/kg: CBD 25, CBDA 50, CBDVA 7, CBGA 7, THC 15, THCA 50): ≤ 1 h; Total plasma exposure in full-spectrum extract relative to individual compound, fold lower ([2]; oral): 2–4 ×; efflux ratio at 240 min, 10 µM [5, 8]: 0.7 ± 0.5
